Results: patent publication US8592404B2, “Derivatives of porphyrin, particularly chlorins and/or bacteriochlorins, and uses thereof in photodynamic therapy” (Universidade de Coimbra, priority 2004, dated 2013)
Like-named read-outs stand apart in the source and are kept apart here.

What was measured:
[1] = deuterated water, 7.4 pH; cited from earlier work
[2] = Lifetime of the triplet state in aqueous solution; format: physicochemical
[3] = Fluorescence quantum yield; format: physicochemical
[4] = Lifetime of singlet oxygen; format: physicochemical; settings: in deuterated water
[5] = Quantum yield of the formation of singlet oxygen (phosphorescence at 1270 nm versus reference photosensitizer TPPS); format: physicochemical; settings: deuterated aqueous solution
Excerpt: According to the present invention, the reference photosensitizer used in meso-tetrakis(3-sulfophenyl)porphyrin (TPPS) whereof the value for the quantum yield of the formation of singlet oxygen in deuterated water is 0.64 at 7.4 pH (photochem. Photobiol, 70: 391, 1999).

Row | Lifetime of the triplet state ([2]; air-saturated aqueous solution) | Lifetime of the triplet state ([2]; nitrogen-saturated aqueous solution) | Fluorescence quantum yield [3] | Lifetime of singlet oxygen [4] | Compound | Quantum yield of the formation of singlet oxygen [1] | Quantum yield of the formation of singlet oxygen [5]
1 | – | – | – | – | O=S(=O)(O)c1cccc(-c2c3nc(c(-c4cccc(S(=O)(=O)O)c4)c4ccc([nH]4)c(-c4cccc(S(=O)(=O)O)c4)c4nc(c(-c5cccc(S(=O)(=O)O)c5)c5ccc2[nH]5)C=C4)C=C3)c1 [TPPS, meso-tetrakis(3-sulfophenyl)porphyrin] | 0.64 | –
2 | 3.88 μs | 235 μs | 0.013 | 65 μs | bacteriochlorin | – | greater than 30%
